Measured values published in the supplement of paper PMC10307832.

Tests used:
Experiment in all cases: relative viability (nuclei count vs DMSO), 5 days (fraction); higher = more cells survive
RU-SKI 43 + Crizotinib = compound: CC[C@@H](C)CNCC(=O)N1CCC2=C([C@@H]1COC3=CC=CC(=C3)C)C=CS2 [RU-SKI 43] + C[C@@H](Oc1cc(-c2cnn(C3CCNCC3)c2)cnc1N)c1c(Cl)ccc(F)c1Cl [Crizotinib] (partner 1 µM)
Method in brief: (§1)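 Dosing by pin tool came one day after lung cancer cell lines were seeded in 1536-well plates, using either one drug or a fixed anchor-drug dose plus five library-drug doses (not always all listed) in √10 steps. After 5 days, nuclei were counted on 4× images. Relative viability is treated-well nuclei count divided by vehicle-well nuclei count, and values are medians of duplicate plates.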

MK-8033 + Navitoclax = compound: Cn1cc(-c2cnc3ccc4ccc(CS(=O)(=O)NCc5ccccn5)cc4c(=O)c3c2)cn1 [MK-8033] + CC1(C)CCC(c2ccc(Cl)cc2)=C(CN2CCN(c3ccc(C(=O)NS(=O)(=O)c4ccc(N[C@H](CCN5CCOCC5)CSc5ccccc5)c(S(=O)(=O)C(F)(F)F)c4)cc3)CC2)C1 [Navitoclax] (partner 0.5 µM)
Method in brief: as §1

RU-SKI 43 + Vorinostat = compound: CC[C@@H](C)CNCC(=O)N1CCC2=C([C@@H]1COC3=CC=CC(=C3)C)C=CS2 [RU-SKI 43] + O=C(CCCCCCC(=O)Nc1ccccc1)NO [Vorinostat] (partner 1 µM)
Method in brief: as §1

MK-8033 + Olaparib = compound: Cn1cc(-c2cnc3ccc4ccc(CS(=O)(=O)NCc5ccccn5)cc4c(=O)c3c2)cn1 [MK-8033] + O=C(c1cc(Cc2n[nH]c(=O)c3ccccc23)ccc1F)N1CCN(C(=O)C2CC2)CC1 [Olaparib] (partner 8 µM)
Method in brief: as §1

Cell Line	relative viability (RU-SKI 43 + Crizotinib; first compound 0.1 µM)	relative viability (RU-SKI 43 + Crizotinib; first compound 0.3162 µM)	relative viability (RU-SKI 43 + Crizotinib; first compound 1 µM)	relative viability (RU-SKI 43 + Crizotinib; first compound 3.162 µM)	relative viability (RU-SKI 43 + Crizotinib; first compound 10 µM)	relative viability (MK-8033 + Navitoclax; first compound 0.02 µM)	relative viability (MK-8033 + Navitoclax; first compound 0.06325 µM)	relative viability (MK-8033 + Navitoclax; first compound 0.2 µM)	relative viability (MK-8033 + Navitoclax; first compound 0.6325 µM)	relative viability (MK-8033 + Navitoclax; first compound 2 µM)	relative viability (RU-SKI 43 + Vorinostat; first compound 0.1 µM)	relative viability (RU-SKI 43 + Vorinostat; first compound 0.3162 µM)	relative viability (RU-SKI 43 + Vorinostat; first compound 1 µM)	relative viability (RU-SKI 43 + Vorinostat; first compound 3.162 µM)	relative viability (RU-SKI 43 + Vorinostat; first compound 10 µM)	relative viability (MK-8033 + Olaparib; first compound 0.02 µM)	relative viability (MK-8033 + Olaparib; first compound 0.06325 µM)	relative viability (MK-8033 + Olaparib; first compound 0.2 µM)	relative viability (MK-8033 + Olaparib; first compound 0.6325 µM)	relative viability (MK-8033 + Olaparib; first compound 2 µM)
NCI-H2023	0.623	0.685	0.602	0.58	0.428	1.08	0.881	0.933	0.943	0.847	0.742	0.918	0.772	0.815	0.602	0.534	0.415	0.439	0.493	0.396
NCI-H1734	0.724	0.709	0.745	0.652	0.547	0.811	0.818	0.763	0.878	0.837	0.821	0.833	0.81	0.852	0.701	0.644	0.553	0.546	0.615	0.648
PC-14	0.827	0.891	0.92	0.804	0.749	0.96	0.944	0.987	1.06	1.02	0.661	0.69	0.739	0.86	0.585	0.249	0.27	0.299	0.321	0.271
NCI-H3122	0.256	0.257	0.249	0.287	0.244	1.03	1	1.03	1.01	1.05	1.06	1.36	1.04	0.467	1.06	0.576	0.662	0.618	0.572	0.589
SW 1573	1	0.767	0.799	0.768	0.723	0.721		0.991	0.884	0.95	0.746	0.997	0.963	0.934	0.767	0.537	0.479	0.418	0.567	0.393
HCC-15	0.806	1.01	0.962	0.873	0.807	0.744	0.706	0.679	0.668	0.668	0.808	0.932	0.881	0.839	0.869	0.807	0.611	0.737	0.67	0.529
NCI-H1666	0.966	1.01	0.971	0.945	0.571	0.959	0.852	0.951	1.1	0.924	0.953	1.08	1.13	0.997	0.799	0.755	0.683	0.659	0.82	0.774
NCI-H460	0.869	1.2	0.91	1.01	0.551	0.975	0.921	1.01	1.19	1.04	0.81	1.3	0.787	0.75	0.565	0.419	0.462	0.36	0.498	0.413
NCI-H2087	0.837	1.12	0.915	0.783	0.733	1.1	0.877	0.916	1	1.05	0.818	1.02	0.985	0.789	0.57	0.593	0.57	0.535	0.492	0.622
EKVX	0.902	1.01	0.926	0.987	0.713	0.939	0.923	0.916	0.82	0.96	0.658	0.614	0.707	0.643	0.632	0.85	0.842	0.825	0.763	0.859
IA-LM	0.759	0.797	0.663	0.736	0.64	0.712	0.618	0.907	0.912	0.696	0.795	0.993	0.964	0.978	0.977	0.749	0.764	0.786	0.756	0.767
NCI-H1355	1.07	1.14	1.17	1.26	1.01	0.911	0.897	0.894	0.981	0.928	0.725	0.704	0.645	0.701	0.615	0.759	0.759	0.632	0.756	0.696
PC-3 [JPC-3]	0.918	1.14	0.998	0.922	0.963	0.746		0.775	0.726	0.749	0.947	0.727	0.982	0.651	0.876	1.08		1.04	1.16	1.09
NCI-H2085	0.881	0.709	0.805	0.783	0.761	1.03	1.03	1.1	1.13	1.14	0.705	0.659	0.808	0.793	0.726	0.771	0.788	0.766	0.794	0.73
NCI-H1650	0.968	0.916	0.971	0.991	0.67	1.21	1.13	1.11	1.11	1.18	0.55	0.674	0.523	0.583	0.589	0.808	0.646	0.688	0.797	0.713
NCI-H1993	0.839	0.882	0.84	0.945	0.758	0.866	0.781	0.859	0.83	0.708	0.717	0.969	0.769	1.08	0.659	0.996	1.01	0.705	0.946	0.669
NCI-H2228	0.498	0.416	0.448	0.579	0.306	1.37	0.876	0.754	0.54	0.839	0.603	0.928	0.828	0.727	0.596	0.79	0.568	0.52	0.865	0.619
LK-2	0.206	0.219	0.256		0.199	0.907	0.853	0.807	0.924	0.772	0.294	0.265	0.363	0.301	0.224	0.974	0.694	0.765	0.678	0.81
LC-2-ad	0.443	0.392	0.535		0.43	0.519	0.328	0.398	0.383	0.413	0.739	0.738	0.697	0.693	0.633	0.701	0.678	0.673	0.702	0.727
NCI-H596	0.998	0.904	0.987	1.06	1.03	0.923	0.884	0.856	0.857	0.951	0.853	0.534	0.669	0.589	0.501	0.698	0.613	0.616	0.7	0.737
LCLC-97TM1	0.424		0.331	0.267	0.287	0.402	0.506	0.396	0.398	0.401	0.741	0.705	0.823	0.629	0.669	0.346	0.387		0.406	0.256
SK-LU-1	0.799	1.02	0.969	0.971	0.898	0.808	0.798	0.792	0.919	0.807	0.738	0.893	0.882	0.795	0.775	0.435	0.471	0.426	0.497	0.394
COR-L23	0.752	0.598	0.736	0.667	0.492	0.938	0.88	0.948	1.01	0.885	0.427	0.376	0.532	0.499	0.387	0.348	0.328	0.378	0.367	0.311
NCI-H2126	1.01	1.24	1.06	1.06	1.01	0.836	0.838	0.861	0.832	0.827	0.793	0.864	0.819	0.906	0.781	0.978	0.921	0.806	0.903	0.875
EPLC-272H	0.981	0.964	1.01		0.812	1.12		1.07	0.853	1.08	0.467	0.384	0.426	0.401	0.31	0.817	0.716	0.792	0.614	0.689
NCI-H2009	1.07	1.06	1.06	1.03	0.905	1.16	1.12	1.08	1.15	1.14	0.692	0.757	0.751	0.693	0.679	0.716	0.683	0.632	0.712	0.707
NCI-H2347	0.745	0.568	0.778	0.67	0.735	0.844	0.741	0.779	0.827	0.737	0.511	0.621	0.674	0.595	0.566	0.564	0.573	0.535	0.617	0.575
